In patent US20230108408A1, “OXALAMIDE SUBSTITUTED HETEROCYCLIC COMPOUNDS AS MODULATORS OF THE ARYL HYDROCARBON RECEPTOR (AHR)” (PHENEX PHARMACEUTICALS AG, priority 2020, published 2023) one finds IC50 data, which are given here for ten compounds.

For the experiment, the target named is T1, AhR (Homo sapiens, UniProt P35869).
T1 construct: The HepG2 CYP1A1-Luc cells do express basal luciferase activity that can be increased via potent AhR agonists or decreased via potent AhR antagonists; endogenous in cells
T1 sequence (P35869 11-848): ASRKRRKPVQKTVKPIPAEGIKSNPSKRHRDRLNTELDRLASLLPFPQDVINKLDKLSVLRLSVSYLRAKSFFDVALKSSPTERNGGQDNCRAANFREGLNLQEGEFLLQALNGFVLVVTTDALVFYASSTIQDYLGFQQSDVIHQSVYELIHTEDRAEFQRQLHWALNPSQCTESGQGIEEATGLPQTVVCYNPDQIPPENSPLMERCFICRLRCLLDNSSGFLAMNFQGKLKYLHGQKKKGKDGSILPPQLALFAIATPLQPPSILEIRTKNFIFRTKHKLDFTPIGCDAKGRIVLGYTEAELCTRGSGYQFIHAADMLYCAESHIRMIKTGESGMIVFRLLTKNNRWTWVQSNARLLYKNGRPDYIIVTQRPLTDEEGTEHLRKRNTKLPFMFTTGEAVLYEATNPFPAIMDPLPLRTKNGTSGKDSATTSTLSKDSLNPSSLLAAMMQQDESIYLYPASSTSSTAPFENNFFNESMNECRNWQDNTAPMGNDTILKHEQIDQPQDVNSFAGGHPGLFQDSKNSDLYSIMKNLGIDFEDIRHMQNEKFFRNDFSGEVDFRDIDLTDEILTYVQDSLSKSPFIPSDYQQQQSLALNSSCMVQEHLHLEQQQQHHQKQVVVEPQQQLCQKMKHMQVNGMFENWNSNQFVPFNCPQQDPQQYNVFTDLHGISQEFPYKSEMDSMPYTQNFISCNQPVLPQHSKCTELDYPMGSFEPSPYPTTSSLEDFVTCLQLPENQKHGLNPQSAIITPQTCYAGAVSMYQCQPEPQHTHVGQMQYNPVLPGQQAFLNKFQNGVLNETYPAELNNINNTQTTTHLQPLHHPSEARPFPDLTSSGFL
As to the kind of experiment: AhR Direct Luciferase Reporter Assay in HepG2 Cells. The class given is cell-based. The conditions noted are these: AhR antagonistic potency; HepG2 CYP1A1-Luc cells, 18 hours, no exogenous AhR agonist or 10 nM VAF347. An excerpt: AhR Direct Luciferase Reporter Assay in HepG2 Cells.
A stable cell line (HepG2 CYP1A1-LUC) was used in which part of the promoter region of the human CYP1A1 gene is stably integrated into the genome of human HepG2 hepatocytes (DSZM #ACC 180) in front of a Photinus pyralis Firefly Luciferase gene. A 1210 bp fragment comprising part of the human CYP1A1 promoter was isolated via SacI and BgIII restriction digestion from Lightswitch Clone S714555 (SwitchGearGenomics) and inserted between the SacI and BgIII sites in pGL4.30 (Promega #E8481) in front of the Firefly Luciferase gene. The resulting vector was linearized with NotI, transfected into HepG2 cells (DSMZ #ACC 180) and stably transfected clones selected with 250 μg/ml Hygromycin B. After repetitive rounds of subcloning and testing for robustly regulated luciferase activity after AhR agonist stimulation, a stable clonal HepG2 CYP1A1-Luc cell line was selected.
The HepG2 CYP1A1-Luc cells do express basal luciferase activity that can be increased via potent AhR agonists or decreased via potent AhR antagonists, added to the growth medium of the cells.
In typical reporter assays performed with this cell line, cells are grown in 96-well plates and AhR modulators are titrated into the growth medium in serial dilutions in RPMI-1640 Medium (Sigma #R7509) supplemented with 8.6% fetal calf serum (Sigma #F7524) and containing either no exogenous AhR agonist or 10 nM of the potent AhR agonist VAF347 (Calbiochem #182690). Cells are further cultivated for 18 hours and luciferase activities are determined from extracts of cells in buffers containing D-Luciferine and ATP using a LUMIstar Optima microplate Luminometer from BMG Labtech.
(In a reporter assay the amount or activity of a reporter protein is the signal.)
Usually IC50 stands for the point on the concentration scale where inhibition reaches its midpoint. Regarding `N#Cc1ccc(C(F)(F)F)c(-c2cc3ccc(NC(=O)C(=O)N4CCOCC4)nc3[nH]2)c1` [1/1], the IC50 lay within 0.1 to 1 µM. In turn, `CN1CCN(C(=O)C(=O)Nc2ccc3cc(-c4cc(C#N)ccc4C(F)(F)F)[nH]c3n2)CC1` [1/2] returned an IC50 greater than 1 µM. For the compound `CN(CC(F)(F)F)C(=O)C(=O)Nc1ccc2cc(-c3cc(C#N)ccc3C(F)(F)F)[nH]c2n1` [1/3], the IC50 was less than 0.1 µM. Under `COCCN(C)C(=O)C(=O)Nc1ccc2cc(-c3cc(C#N)ccc3C(F)(F)F)[nH]c2n1` [1/4] stands 0.1 to 1 µM; under `N#Cc1ccc(C(F)(F)F)c(-c2cc3ccc(NC(=O)C(=O)N4CCC5(CC5)C4)nc3[nH]2)c1` [1/5], less than 0.1 µM; under `CC1CCN1C(=O)C(=O)Nc1ccc2cc(-c3cc(C#N)ccc3C(F)(F)F)[nH]c2n1` (stereo not shown) [1/6], less than 0.1 µM. `N#Cc1ccc(C(F)(F)F)c(-c2cc3ccc(NC(=O)C(=O)N4CCC4)nc3[nH]2)c1` [1/7] displayed an IC50 of 0.1 to 1 µM.

Compound `N#Cc1ccc(C(F)(F)F)c(-c2cc3ccc(NC(=O)C(=O)NCc4ccccc4)nc3[nH]2)c1` [2/1, N^1-Benzyl-N^2-(2-(5-cyano-2-(trifluoromethyl)phenyl)-1H-pyrrolo[2,3-b]pyridin-6-yl)oxalamide] showed an IC50 of 0.1 to 1 µM. For `N#Cc1ccc(C(F)(F)F)c(-c2cc3ccc(NC(=O)C(=O)N4CCCC4)nc3[nH]2)c1` [Example 1, N-(2-(5-Cyano-2-(trifluoromethyl)phenyl)-1H-pyrrolo[2,3-b]pyridin-6-yl)-2-oxo-2-(pyrrolidin-1-yl)acetamide], the IC50 was less than 0.1 µM.

The compound `CC1(O)CN(C(=O)C(=O)Nc2ccc3cc(-c4cc(C#N)ccc4C(F)(F)F)[nH]c3n2)C1` [Example 2, N-(2-(5-Cyano-2-(trifluoromethyl)phenyl)-1H-pyrrolo[2,3-b]pyridin-6-yl)-2-(3-hydroxy-3-methylazetidin-1-yl)-2-oxoacetamide] had an IC50 of 0.1 to 1 µM.
